The numbers were not newly measured in paper PMC12308805, “Ultrahigh-Throughput Virtual Screening Strategies against PPI Targets: A Case Study of STAT Inhibitors” (Journal of Chemical Information and Modeling, 2025), which cites them from elsewhere.

The test system of one data set is STAT3. To be noted: sheet 6QHD_actives_decoys; retrospective screening set for STAT3 SH2 domain (PDB 6QHD); […]; ref DUD-E; cited from earlier work.
Turning to `C=C1[C@@H](O)[C@@H]2O[C@]3(CC[C@@H]2O[C@@H]1[C@@H](O)C[C@H](C)[C@H]1O[C@@]2(CCCCO2)CC[C@H]1C)CC[C@H](/C=C/[C@@H](C)[C@H]1CC(C)=C[C@@]2(O[C@@H](C[C@@](C)(O)C(=O)O)CC[C@H]2O)O1)O3` [Decoy484], the Type result is reported as “Inactive (Decoy)”.
As to `Cc1cc(NS(=O)(=O)c2ccc(NC(=S)NC(=O)COc3ccc([N+](=O)[O-])cc3)cc2)no1` [Decoy494], the Type entry is “Inactive (Decoy)”.
`CC[C@H](C)N1C(=O)NC(=O)/C(=C/Nc2ccc3c(c2)C[C@]2(C(=O)NC(=O)N=C2O)[C@H]2CN(C)CCN32)C1=O` [Decoy502]: the Type entry is on record as “Inactive (Decoy)”.
With `Nc1n(-c2ccccc2)c(=O)c(C(c2ccc([N+](=O)[O-])cc2)c2c([O-])[n+](-c3ccccc3)c(N)n(-c3ccccc3)c2=O)c([O-])[n+]1-c1ccccc1` [Decoy514], the Type result was “Inactive (Decoy)”.
With `COc1ccccc1/C=C/C(=O)NC(=S)Nc1ccc(S(=O)(=O)Nc2cc(C)on2)cc1` [Decoy519], the Type result is “Inactive (Decoy)”.
Turning to `Cc1ccnc(NS(=O)(=O)c2ccc(NC(=O)c3cc([N+](=O)[O-])c(Cl)c([N+](=O)[O-])c3)cc2)n1` [Decoy530], the Type result was “Inactive (Decoy)”.

The data set is the same for the next values; noted with them: sheet 6QHD_actives_decoys; retrospective screening set for STAT3 SH2 domain (PDB 6QHD); decoys generated with DUD-E and presumed inactive, not tested; ref DUD-E; cited from earlier work.
For `CCOC(=O)c1sc(NC(=O)CCCS(=O)(=O)c2nc(-c3ccccc3OC)cc(C(F)(F)F)n2)c(C(N)=O)c1C` [Decoy482], the Type entry is listed as “Inactive (Decoy)”.
Turning to `Cc1cc(NS(=O)(=O)c2ccc(N/N=C(/C#N)C(=O)Nc3ccc(S(N)(=O)=O)cc3)cc2)no1` [Decoy483], the Type result is “Inactive (Decoy)”.
Consider `COc1cc(NS(=O)(=O)c2ccc(NC(=O)c3cccc(COc4cccc(Cl)c4)c3)cc2)nc(OC)n1` [Decoy485], for which the Type entry is “Inactive (Decoy)”.
For `O=C(Nc1ccc2c(O)c(/N=N/c3ccccc3)c(S(=O)(=O)O)cc2c1)Nc1ccc2c(O)c(/N=N/c3ccccc3)c(S(=O)(=O)O)cc2c1` [Decoy486], the Type entry is recorded as “Inactive (Decoy)”.
Turning to `O=C(CSc1n[nH]c(N/N=C/c2ccc(OCc3ccc(F)cc3)o2)n1)Nc1nccs1` [Decoy487], the Type entry is “Inactive (Decoy)”.
Consider `COCCOc1ccc(C(F)(F)F)cc1NC(=O)CSc1nnc(-c2ccc(OC)cc2)o1` [Decoy488], for which the Type entry is “Inactive (Decoy)”.
Consider `CCOC(=O)c1ccc(NC(=O)COc2cc(Br)c([C@H]3NC(=S)N=C(C)/C3=C(/O)OC)cc2OC)cc1` [Decoy489], for which the Type result is on record as “Inactive (Decoy)”.
As to `NS(=O)(=O)c1ccc(CCNC(=O)CCCCCn2c(=S)[nH]c3ccc(N4CCOCC4)cc3c2=O)cc1` [Decoy490], the Type entry is “Inactive (Decoy)”.
On to `C=C(CCO)C(=O)OC[C@@H]1OC[C@H](OC(=O)C(=C)CCO[C@@H]2O[C@H](COC(=O)C(=C)CCO)[C@@H](O)[C@H](O)[C@H]2O)[C@@H](O)[C@H]1O` [Decoy491], for which the Type result is reported as “Inactive (Decoy)”.
In the case of `C=C(CCO)C(=O)OC[C@H]1OC[C@@H](OC(=O)C(=C)CCO[C@@H]2O[C@H](COC(=O)C(=C)CCO)[C@@H](O)[C@H](O)[C@H]2O)[C@@H](O)[C@H]1O` [Decoy492], the Type result is given as “Inactive (Decoy)”.
For `C=C(CCO)C(=O)OC[C@H]1OC[C@H](OC(=O)C(=C)CCO[C@@H]2O[C@H](COC(=O)C(=C)CCO)[C@@H](O)[C@H](O)[C@H]2O)[C@@H](O)[C@H]1O` [Decoy493], the Type result is reported as “Inactive (Decoy)”.
In the case of `CCN(CC)C1=NC(=O)[C@@H](CC(=O)Nc2cccc(C(=O)OCC(=O)c3ccc(C)cc3)c2)S1` [Decoy495], the Type entry is “Inactive (Decoy)”.
Consider `COC(=O)c1ccc2c(=O)n(CCc3ccc(S(N)(=O)=O)cc3)c(SCC(=O)Nc3ccc(C)cc3)nc2c1` [Decoy496], for which the Type result is on record as “Inactive (Decoy)”.
Take `COC(=O)[C@@H]1O[C@H](OC/C(=N/NC(N)=O)[C@H]2CC[C@@H]3[C@@H]4CC[C@@H]5C[C@H](OC(C)=O)CC[C@@]5(C)[C@H]4C(=O)C[C@@]23C)[C@@H](OC(C)=O)[C@H](OC(C)=O)[C@H]1OC(C)=O` [Decoy497]: the Type result is given as “Inactive (Decoy)”.
With `COC(=O)[C@@H]1O[C@H](OC/C(=N/NC(N)=O)[C@H]2CC[C@@H]3[C@@H]4CC[C@@H]5C[C@H](OC(C)=O)CC[C@@]5(C)[C@H]4[C@H](O)C[C@@]23C)[C@@H](OC(C)=O)[C@H](OC(C)=O)[C@H]1OC(C)=O` [Decoy498], the Type entry is given as “Inactive (Decoy)”.
Take `CCOC(=O)c1cc(C(=O)OCC)c(=O)[nH]c1NN=C1CCN(c2ncc(C(F)(F)F)cc2Cl)CC1` [Decoy499]: the Type entry is listed as “Inactive (Decoy)”.
On to `COc1cc(NC(=O)CSc2n[nH]c(N/N=C/c3cc([N+](=O)[O-])ccc3O)n2)ccc1Cl` [Decoy500], for which the Type entry is reported as “Inactive (Decoy)”.
With `Nc1ccc2cc(S(=O)(=O)O)cc(O)c2c1/N=N/c1ccccc1S(=O)(=O)NCC1CCCCC1` [Decoy501], the Type entry was “Inactive (Decoy)”.
For the compound `O=C(O)CN(CC(=O)O)[C@H](CCCCNC(=S)Nc1ccc(-c2c3ccc(=O)cc-3oc3cc(O)ccc23)c(C(=O)O)c1)C(=O)O` [Decoy503], the Type result is recorded as “Inactive (Decoy)”.
Turning to `CCN(CC)c1ccc(C(=O)OCC(=O)Nc2cccc(S(=O)(=O)/N=C3\CCCCCN3)c2)cc1` [Decoy504], the Type result is recorded as “Inactive (Decoy)”.
For `NCCCCCCNc1ncnc2c1ncn2[C@@H]1O[C@H](COP(=O)(O)O)[C@@H](OP(=O)(O)O)[C@H]1O` [Decoy505], the Type result was “Inactive (Decoy)”.
In the case of `C=C(CO[C@@H]1[C@H](O)[C@H](CO)O[C@@H](OCC#Cc2ccc(O)c(C(=O)OC)c2)[C@H]1NC(C)=O)C(=O)OCC` [Decoy506], the Type entry is given as “Inactive (Decoy)”.
Take `C=C(CO[C@H]1[C@H](O)[C@H](CO)O[C@@H](OCC#Cc2ccc(O)c(C(=O)OC)c2)[C@H]1NC(C)=O)C(=O)OCC` [Decoy507]: the Type result was “Inactive (Decoy)”.
Consider `C=CCn1c(CNc2ccc(C)cc2)nnc1SCCC(=O)Nc1sc(C(=O)OCC)c(C)c1C#N` [Decoy508], for which the Type result is given as “Inactive (Decoy)”.
As for `CCOc1ccc(-c2n[nH]c3c2[C@H](c2cc(OC)c(OC(C)=O)c(OC)c2)C(C#N)=C(N)O3)cc1` [Decoy509], the Type entry is recorded as “Inactive (Decoy)”.
Take `COc1cc(/C=N/NC(=O)CC(=O)N/N=C/c2cc(Br)c(O)c(OC)c2)cc(Br)c1O` [Decoy510]: the Type result is on record as “Inactive (Decoy)”.
Consider `O=c1ccn([C@@H]2O[C@@H](CO[P@@](=O)(O)O[P@@](=O)(O)OP(=O)(O)O)[C@@H](O)[C@@H]2O)c(=O)[nH]1` [Decoy511], for which the Type result is listed as “Inactive (Decoy)”.
Turning to `COc1cc(NC(=O)c2cnn3c2N[C@H](c2cc(OC)c(OC)c(OC)c2)C[C@@H]3C(F)(F)F)cc([N+](=O)[O-])c1` [Decoy512], the Type result is listed as “Inactive (Decoy)”.
Regarding `CCOC(=O)CNC(=O)[C@H](c1ccc(O)cc1)N(C(=O)c1snc(C(N)=O)c1N)c1ccccc1CC` [Decoy513], the Type result is reported as “Inactive (Decoy)”.
In the case of `O=C(O)CN(CC(=O)O)[C@@H](CCCCNC(=S)Nc1ccc(-c2c3ccc(=O)cc-3oc3cc(O)ccc23)c(C(=O)O)c1)C(=O)O` [Decoy515], the Type result was “Inactive (Decoy)”.
For `Cn1c(CNc2ccc(C(=N)N)cc2)nc2cc(C(=O)N(CCC(=O)O[C@@H]3O[C@H](C(=O)O)[C@@H](O)[C@H](O)[C@H]3O)c3ccccn3)ccc21` [Decoy516], the Type entry is on record as “Inactive (Decoy)”.
In the case of `CCOC(=O)c1sc(N/N=C(\C(=O)Nc2cccc(OC)c2)C(=O)c2ccc([N+](=O)[O-])cc2)c(C(=O)OCC)c1C` [Decoy517], the Type entry is “Inactive (Decoy)”.
For the compound `CCNS(=O)(=O)c1ccc(C)c(C(=O)OCC(=O)NNC(=O)c2ccccc2Cl)c1` [Decoy518], the Type entry is reported as “Inactive (Decoy)”.
As to `CCOc1ccc(-n2c(CNC(=O)c3ccc(S(=O)(=O)N(C)C)cc3)nnc2SCC(=O)Nc2cccc(C)c2)cc1` [Decoy520], the Type entry is “Inactive (Decoy)”.
As for `CCCc1nc(C(C)(C)O[C@@H]2O[C@H](C(=O)O)[C@@H](O)[C@H](O)[C@H]2O)c(C(=O)O)n1Cc1ccc(-c2ccccc2-c2nnn[nH]2)cc1` [Decoy521], the Type entry is “Inactive (Decoy)”.
As for `CCOC(=O)Cc1csc(NC(=O)CSc2nnc(Cc3csc(N)n3)n2C)n1` [Decoy522], the Type entry is “Inactive (Decoy)”.
With `Cc1nnc(SCC2=C(C(=O)NCC(C)C)N3C(=O)[C@H](NC(=O)c4nn(C)c(C)c4Br)[C@H]3SC2)s1` [Decoy523], the Type result is recorded as “Inactive (Decoy)”.
Take `C[C@@]12CCC[C@@](C)(C(=O)O[C@@H]3O[C@@H](CO)[C@@H](O)[C@@H](O)[C@H]3O)[C@H]1CC[C@]13C[C@H](CC[C@H]12)[C@@](CO)(O[C@@H]1O[C@@H](CO)[C@@H](O)[C@@H](O)[C@H]1O)C3` [Decoy524]: the Type result is on record as “Inactive (Decoy)”.
Take `C[C@@H](OC(=O)CCC(=O)Nc1ccc(C(=O)OCC(=O)c2cccc([N+](=O)[O-])c2)cc1)C(=O)c1cccc(Cl)c1` [Decoy525]: the Type entry is given as “Inactive (Decoy)”.
Consider `O=C(NCCCN1CCN(CCCNC(=O)c2cc3ccccc3oc2=O)CC1)c1cc2ccccc2oc1=O` [Decoy526], for which the Type entry is given as “Inactive (Decoy)”.
On to `COc1ccc([C@H]2Oc3c(OC)cc(CCCO)cc3[C@@H]2CO)cc1O[C@@H]1O[C@@H](CO)[C@@H](O)[C@@H](O)[C@@H]1O` [Decoy527], for which the Type entry is “Inactive (Decoy)”.
`COc1ccc(OC)c(-n2c(CNC(=O)c3ccc(S(=O)(=O)N(C)C)cc3)nnc2SCC(=O)Nc2ccc(F)cc2)c1` [Decoy528]: the Type result is “Inactive (Decoy)”.
Turning to `COC(=O)CNC(=O)c1ccc(NC(=O)c2nc(NCc3ccco3)ncc2Cl)cc1` [Decoy529], the Type entry is “Inactive (Decoy)”.
On to `COc1ccc(C(=O)NCCc2nnc3ccc(SCC(=O)Nc4ccc(OC(F)(F)F)cc4)nn23)cc1` [Decoy531], for which the Type entry is given as “Inactive (Decoy)”.
`C[C@H](CCC(=O)NCC(=O)NCCS(=O)(=O)O)[C@H]1CC[C@H]2[C@@H]3[C@H](O)C[C@@H]4C[C@H](O)CC[C@]4(C)[C@H]3C[C@H](O)[C@]12C` [Decoy532]: the Type entry is “Inactive (Decoy)”.
Take `CCOC(=O)c1c(NC(=O)[C@@H](C)Sc2nnc(CNC(=O)c3cc(OC)cc(OC)c3)n2C)sc2c1CCC2` [Decoy533]: the Type result was “Inactive (Decoy)”.
